Legend:
[1] = system: croton oil-induced granuloma; experiment: Test for croton oil-induced granuloma (air pouch exudate and thymus weight); type: in vivo, rat; conditions: male Wistar rats, 7 days, vs control group
Source text: Using the croton oil granuloma test, which is a test method with which the local anti-inflammatory action and the systemic side effect can be evaluated at the same time, the pharmacological effect and the systemic side effect of the compounds of the present invention were studied.
Five individuals/group of male Wistar rats having body weights of 180 to 225 g were used, and hair on the back of these rats was shaved with a clipper under ether anesthesia, followed by preparing an air pouch by subcutaneous injection of 20 mL of air at the back. On the next day, 1 mL of cottonseed oil containing 1% croton oil was administered to the pouch. Each test drug was suspended in the croton oil-containing cottonseed oil before administration. Seven days later, blood was collected from abdominal aorta under ether anesthesia, and exudate in the pouch was collected and its fluid amount was measured. Further, the thymus was removed, and its weight was measured. The weight of the exudate and the weight of the thymus are shown in Table 2 as the suppression rate and the atrophy rate (%) with respect to those of the control group.

[2] = system: croton oil-induced ear edema; experiment: Test for croton oil-induced ear edema; type: in vivo; conditions: rat right auricle; for Edema suppression rate of 6 hours after administration of inflammatory agent (%): 6 hours after croton oil; for Edema suppression rate of 24 hours after administration of inflammatory agent (%): 24 hours after croton oil
Experimental: Croton oil ear edema test, which is a representative model for dermatitis, was used to study the pharmacological effect of compounds of the present invention.
Five individuals/group of rats of 5 weeks old (body weight, 128 g to 169 g) were used. One day before the test, the thickness of the right ear was measured under ether anesthesia using a dial thickness gauge, to obtain the Pre value. On the day of the test, 20 mg each of the ointments to be tested, which had been prepared to have various concentrations in white vaseline, was applied to the right auricle (both sides) of each rat, and a collar was then placed around the neck of the rat to prevent contacting/scratching and removal of the drug. Two hours later, the ointment was wiped off under ether anesthesia using absorbent cotton, and 0.1 mL of 5% croton oil (croton oil:ether:pyridine:distilled water=1:14:4:1) solution was applied dropwise to the both sides of the auricle while drying the solution with a drier (air blow), to induce ear edema. Six and 24 hours after the induction of the edema, the thickness of the right auricle was measured under ether anesthesia, and the edema rate and the edema suppression rate were calculated according to the equations below, which suppression rate is shown in Table 1.

| Structure (SMILES) | Rate of exudates suppression (pharmacological effects) ([1]; dose 0.001 mg/rat into pouch) | Rate of thymus atrophy (systemic side effects) ([1]; dose 0.001 mg/rat into pouch) | Rate of exudates suppression (pharmacological effects) ([1]; dose 0.01 mg/rat into pouch) | Rate of thymus atrophy (systemic side effects) ([1]; dose 0.01 mg/rat into pouch) | Rate of exudates suppression (pharmacological effects) ([1]; dose 0.1 mg/rat into pouch) | Rate of thymus atrophy (systemic side effects) ([1]; dose 0.1 mg/rat into pouch) | Rate of exudates suppression (pharmacological effects) ([1]; dose 1 mg/rat into pouch) | Rate of thymus atrophy (systemic side effects) ([1]; dose 1 mg/rat into pouch) | Edema suppression rate of 6 hours after administration of inflammatory agent (%) ([2]; ointment concentration 0.001%) | Edema suppression rate of 24 hours after administration of inflammatory agent (%) ([2]; ointment concentration 0.001%) | Edema suppression rate of 6 hours after administration of inflammatory agent (%) ([2]; ointment concentration 0.01%) | Edema suppression rate of 24 hours after administration of inflammatory agent (%) ([2]; ointment concentration 0.01%) | Edema suppression rate of 6 hours after administration of inflammatory agent (%) ([2]; ointment concentration 0.1%) | Edema suppression rate of 24 hours after administration of inflammatory agent (%) ([2]; ointment concentration 0.1%) |
| --- | --- | --- | --- | --- | --- | --- | --- | --- | --- | --- | --- | --- | --- | --- |
| CCCC1O[C@@H]2C[C@H]3[C@@H]4CCC5=CC(=O)C=C[C@]5(C)[C@H]4[C@@H](O)C[C@]3(C)[C@]2(C(=O)CO)O1 (stereo partly drawn) [Budesonide(R), reference compound] | 7.6% | 15.6% | 44.9% | 25.8% | 88.4% | 74.5% | 93.0% | 90.2% | – | – | – | – | – | – |
| CCCC1O[C@@H]2C[C@H]3[C@@H]4CCC5=CC(=O)C=C[C@]5(C)[C@H]4[C@@H](O)C[C@]3(C)[C@]2(C(=O)CO)O1 (stereo partly shown) [Budesonide, budesonide, reference compound] | 10.8% | 7.3% | 66.9% | 17.7% | 91.6% | 74.5% | 94.3% | 87.5% | 11.8% | 7.6% | 32.3% | 33.5% | 48.1% | 45.1% |
| CC(C)C(=O)OCC(=O)[C@@]12O[C@H](C3CCCCC3)O[C@@H]1C[C@H]1[C@@H]3CCC4=CC(=O)C=C[C@]4(C)[C@H]3[C@@H](O)C[C@@]12C [Ciclesonide, ciclesonide, reference compound] | 62.8% | 6.0% | 93.5% | 13.0% | 93.0% | 23.6% | 92.6% | 84.4% | 9.1% | 9.4% | 30.3% | 24.5% | 49.4% | 43.5% |
| CC12C=CC(=O)C=C1CCC1C2C(O)CC2(C)C1CC1OC(C3CCCCC3)OC12C(=O)COC1OC(CO)C(O)C(O)C1O (stereo not shown) [Compound 2] | – | – | – | – | – | – | – | – | 13.5% | 12.5% | 36.8% | 38.2% | 50.2% | 49.5% |
| CCC(=O)OCC1OC(OCC(=O)C23OC(C4CCCCC4)OC2CC2C4CCC5=CC(=O)C=CC5(C)C4C(O)CC23C)C(OC(=O)CC)C(OC(=O)CC)C1OC(=O)CC (stereo not shown) [Compound 4] | 17.9% | 0.0% | 44.5% | 0.0% | 87.0% | 0.0% | 94.5% | 0.0% | 30.8% | 33.8% | 46.3% | 70.2% | 54.4% | 71.7% |
| CCCC(=O)OCC1OC(OCC(=O)C23OC(C4CCCCC4)OC2CC2C4CCC5=CC(=O)C=CC5(C)C4C(O)CC23C)C(OC(=O)CCC)C(OC(=O)CCC)C1OC(=O)CCC (stereo not shown) [Compound 5] | 17.8% | 0.0% | 14.3% | 0.0% | 40.4% | 0.0% | 91.4% | 0.0% | 21.7% | 11.1% | 61.5% | 48.1% | 57.6% | 52.3% |
| CC(C)C(=O)OCC1OC(OCC(=O)C23OC(C4CCCCC4)OC2CC2C4CCC5=CC(=O)C=CC5(C)C4C(O)CC23C)C(OC(=O)C(C)C)C(OC(=O)C(C)C)C1OC(=O)C(C)C (stereo not shown) [Compound 6] | 0.0% | 0.0% | 12.0% | 0.0% | 31.2% | 0.0% | 71.9% | 0.0% | 27.5% | 30.5% | 53.1% | 45.8% | 53.1% | 55.1% |
| CC12C=CC(=O)C=C1CCC1C2C(O)CC2(C)C1CC1OC(C3CCCCC3)OC12C(=O)COC1OC(COC=O)C(OC=O)C(OC=O)C1OC=O (stereo not shown) [Compound 7] | 8.7% | 2.9% | 52.4% | 0.0% | 59.4% | 5.8% | 76.8% | 19.5% | 42.3% | 52.0% | 49.7% | 53.4% | 48.5% | 53.5% |
| C[C@]12C=CC(=O)C=C1CC[C@@H]1[C@@H]2[C@@H](O)C[C@@]2(C)[C@H]1C[C@H]1O[C@@H](C3CCCCC3)O[C@]12C(=O)CO [desCIC, des-ciclesonide, reference compound] | 62.0% | 0.0% | 74.1% | 11.7% | 92.7% | 22.4% | 94.1% | 86.4% | – | – | – | – | – | – |
